Experiments:
[1] = biological target: T1, HIV-1 RT-associated RNase H function (Human immunodeficiency virus type 1 group M subtype B, UniProt P04585); assay: HIV-1 DNA polymerase-independent RNase H activity determination (wt RT); format: biochemical; details: for remaining activity at 100 µM: in the presence of 100 µM of the compound, read-out: Percentage of residual enzyme activity (RNase H); for IC50: concentration required to reduce the enzyme activity by 50%, read-out: RnaseH IC50
T1 construct: The 1:1 ration between the p66/p51 subunits was also verified; His6; made in house; host or cells: E. coli strain M15
Description: (§1) HIV-1 RT group M subtype B. Heterodimeric RT was expressed essentially as previously described. Briefly, E. coli strain M15 containing the p6HRT-prot vector was grown to an optical density at 600 nm of 0.7 and induced with 1.7 mM isopropyl β-D-1-thiogalactopyranoside (IPTG) for 4 h. Protein purification was carried out with a BioLogic LP system (Biorad), using a combination of immobilised metal affinity and ion exchange chromatography. Cell pellets were resuspended in lysis buffer (50 mM sodium phosphate buffer pH 7.8, containing 0.5 mg/mL lysozyme), incubated on ice for 20 min, and after adding NaCl to a final concentration of 0.3 M, were sonicated and centrifuged at […] for 1 h. The supernatant was loaded onto a Ni^2+-NTA-Sepharose column pre-equilibrated with loading buffer (50 mM sodium phosphate buffer pH 7.8, containing 0.3 M NaCl, 10% glycerol, and 10 mM imidazole) and washed thoroughly with wash buffer (50 mM sodium phosphate buffer pH 6.0, containing 0.3 M NaCl, 10% glycerol, and 80 mM imidazole). RT was eluted with an imidazole gradient in wash buffer (0–0.5 M). Fractions were collected, protein purity was checked by SDS-PAGE and found to be higher than 90%. The 1:1 ration between the p66/p51 subunits was also verified. Enzyme-containing fractions were pooled and diluted 1:1 with 50 mM sodium phosphate buffer pH 7.0, containing 10% glycerol; and then loaded into a Hi-trap heparin HP GE (Healthcare Lifescience) pre-equilibrated with 10 column volumes of loading buffer (50 mM sodium phosphate buffer pH 7.0, containing 10% glycerol and 150 mM NaCl). The column was then washed with loading buffer and the RT was eluted with Elute Buffer 2 (50 mM sodium phosphate pH 7.0, 10% glycerol, 1 M NaCl). Fractions were collected, protein was dialysed and stored in buffer containing 50 mM Tris-HCl pH 7.0, 25 mM NaCl, 1 mM EDTA, and 50% glycerol. Catalytic activities and protein concentrations were determined. Enzyme-containing fractions were pooled and aliquots were stored at −80 °C.
(§2) HIV RT-associated RNase H activity was measured as described[36] using the RNase H inhibitor RDS1759[11] as a control. In 100 µL reaction volume containing 50 mM Tris-HCl buffer pH 7.8, 6 mM MgCl2, 1 mM dithiothreitol (DTT), 80 mM KCl, 0.25 µM hybrid RNA/DNA 5′-GAUCUGAGCCUGGGAGCU-Fluorescin-3′ (HPLC, dry, QC: Mass Check) (available from Metabion) 5′-Dabcyl-AGCTCCCAGGCTCAGATC-3′ (HPLC, dry, QC: Mass Check), increasing concentrations of inhibitor, whose dilution were made in water, and 20 ng of wt RT according to a linear range of dose-response curve. The reaction mixture was incubated for 1 h at 37 °C, stopped by addition of EDTA and products were measured with a multilabel counter plate reader Victor 3 (Perkin Elmer model 1420–051) equipped with filters for 490/528 nm (excitation/emission wavelength).

HIV-1 integrase = test system: HIV-1 integrase; parameters: method as in earlier work; details: cited from earlier work
[2] = biological target: T2, HIV-1 RT-associated RDDP function (Human immunodeficiency virus type 1 group M subtype B, UniProt P04585); assay: HIV-1 RNA-dependent DNA polymerase (RDDP) activity determination; format: biochemical; details: for remaining activity at 100 µM: read-out: Percentage of residual enzyme activity (RDDP); for IC50: wt RT
T2 construct: The 1:1 ration between the p66/p51 subunits was also verified; His6; made in house; host or cells: E. coli strain M15
Description: as §1
RNA-dependent DNA polymerase (RDDP) activity was measured as described[37] using the NNRTI Efavirenz as a control. In 25 µL volume containing 60 mM Tris-HCl buffer pH 8.1, 8 mM MgCl2, 60 mM KCl, 13 mM DTT, 2.5 µM poly (A)- oligo (dT), 100 µM dTTP, increasing concentrations of inhibitor, whose dilution were made in water, and 6 ng of wt RT according to a linear range of dose-response curve. After enzyme addition, the reaction mixture was incubated for 30 min at 37 °C and the stopped by addition of EDTA. Reaction products were detected by picogreen addition and measured with a multilabel counter plate reader Victor 3 (Perkin Elmer model 1420–051) equipped with filters for 502/523 nm (excitation/emission wavelength).

[3] = test system: HIV-1 RT R448A, RNase H function; assay: RNase H inhibition on mutated RT R448A; format: biochemical; details: RNase H IC50 ratio mutant/wt
Description: as §2
(§3) The QuikChange mutagenesis kit (Agilent Technologies Inc., Santa Clara, CA) was used to introduce amino acid substitutions into the p66 HIV-1 RT subunit coded in a p6HRT- prot plasmid by following the manufacturer’s instructions.
(§4) In order to verify this hypothesis, it was chosen to perform site-directed mutagenesis, determining the independent impact of several amino acid substitutions on the potency of the compound to inhibit the RNase H function. All the selected aminoacids are localised in the RNase H domain and are potentially crucial for the binding of RNase H function inhibitors. […]

[4] = biological target: T3, HIV-1 RT R448A, RNase H function (Human immunodeficiency virus type 1 group M subtype B, UniProt P04585, R1035A); assay: RNase H inhibition on mutated RT R448A; format: biochemical
T3 construct: introduce amino acid substitutions into the p66 HIV-1 RT subunit coded in a p6HRT- prot plasmid; His6; made in house; host or cells: E. coli strain M15
Description: as §2, §3, §4

[5] = biological target: HIV-1 RT L503F, RNase H function (Human immunodeficiency virus 1, UniProt P04585, L1090F); assay: RNase H inhibition on mutated RT L503F; format: biochemical; details: row printed L503F
Description: as §2, §3, §4

[6] = biological target: T4, HIV-1 RT R557A, RNase H function (Human immunodeficiency virus type 1 group M subtype B, UniProt P04585, R1144A); assay: RNase H inhibition on mutated RT R557A; format: biochemical
T4 construct: introduce amino acid substitutions into the p66 HIV-1 RT subunit coded in a p6HRT- prot plasmid; His6; made in house; host or cells: E. coli strain M15
Description: as §2, §3, §4

[7] = test system: HIV-1 RT R557A, RNase H function; assay: RNase H inhibition on mutated RT R557A; format: biochemical; details: RNase H IC50 ratio mutant/wt
Description: as §2, §3, §4

[8] = biological target: T5, HIV-1 RT A502F, RNase H function (Human immunodeficiency virus type 1 group M subtype B, UniProt P04585, A1089F); assay: RNase H inhibition on mutated RT A502F; format: biochemical
T5 construct: introduce amino acid substitutions into the p66 HIV-1 RT subunit coded in a p6HRT- prot plasmid; His6; made in house; host or cells: E. coli strain M15
Description: (§5) HIV RT-associated RNase H activity was measured as described[36] using the RNase H inhibitor RDS1759[11] as a control. In 100 µL reaction volume containing 50 mM Tris-HCl buffer pH 7.8, 6 mM MgCl2, 1 mM dithiothreitol (DTT), 80 mM KCl, 0.25 µM hybrid RNA/DNA 5′-[sequence]-Fluorescin-3′ (HPLC, dry, QC: Mass Check) (available from Metabion) 5′-Dabcyl-[sequence]-3′ (HPLC, dry, QC: Mass Check), increasing concentrations of inhibitor, whose dilution were made in water, and 20 ng of wt RT according to a linear range of dose-response curve. The reaction mixture was incubated for 1 h at 37 °C, stopped by addition of EDTA and products were measured with a multilabel counter plate reader Victor 3 (Perkin Elmer model 1420–051) equipped with filters for 490/528 nm (excitation/emission wavelength).
(§6) The next mutation involved the residue A502 located in the alpha helix, close to the second identified allosteric binding pocket. […] A502 residue was replaced by a phenylalanine with the aim to provoke a shift of alpha helix that might reduce the space between the two subunits p51 and p66 and therefore hinder the entrance of the compound in the pocket.

[9] = test system: HIV-1 RT A502F, RNase H function; assay: RNase H inhibition on mutated RT A502F; format: biochemical; details: RNase H IC50 ratio mutant/wt
Description: as §5, §6

[10] = biological target: T6, HIV-1 RT A508V, RNase H function (Human immunodeficiency virus type 1 group M subtype B, UniProt P04585, A1095V); assay: RNase H inhibition on mutated RT A508V; format: biochemical
T6 construct: introduce amino acid substitutions into the p66 HIV-1 RT subunit coded in a p6HRT- prot plasmid; His6; made in house; host or cells: E. coli strain M15
Description: as §2, §3, §4

[11] = biological target: T7, HIV-1 RT V108F, RNase H function (Human immunodeficiency virus type 1 group M subtype B, UniProt P04585, V695F); assay: RNase H inhibition on mutated RT V108F; format: biochemical
T7 construct: introduce amino acid substitutions into the p66 HIV-1 RT subunit coded in a p6HRT- prot plasmid; His6; made in house; host or cells: E. coli strain M15
Description: as §2, §3, §4

[12] = in the presence of 100 µM of the compound

| Structure (SMILES) | remaining activity at 100 µM [1] | IC50 ([1]; wt RT) | remaining activity at 100 µM [2, 12] | IC50 [2] | folds less active on RNase H than flavuglaucin B (7) ([1]; wt RT) | also measured |
| --- | --- | --- | --- | --- | --- | --- |
| COc1ccc(-c2cc(=O)c3c(O)c(OC)c(OC)cc3o2)cc1 [Compound 1, salvigenin] | 80% | > 100 µM | – | – | – | – |
| COc1cc2oc(-c3ccc(O)cc3)cc(=O)c2c(O)c1OC [Compound 2, cirsimaritin] | – | 89 ± 7 µM | – | – | – | decrease in RNase H inhibitory activity relative to cirsiliol (3) ([1]; wt RT): 10 folds |
| COc1cc2oc(-c3ccc(O)c(O)c3)cc(=O)c2c(O)c1OC [Compound 3, cirsiliol] | – | 8.2 ± 0.6 µM | – | – | – | concentration inhibiting HIV-1 integrase (HIV-1 integrase): 12 µM |
| CC(=O)OCC12C(O)CC(C)C3(CC(c4ccoc4)OC3=O)C1CCC(=O)C21CO1 (stereo not shown) [Compound 4, teuflavin] | 80% | > 100 µM | – | – | – | – |
| CC(=O)OCC1=C2C(COC3OC(CO)C(O)C(O)C3OC(C)=O)CC(C)C3(CC(c4ccoc4)OC3=O)C2CCC1 (stereo not shown) [Compound 5, teuflavoside] | 74% | > 100 µM | – | – | – | – |
| CC(=O)OCC1=CCCC2C1=CCC(C)C21CC(c2ccoc2)OC1=O (stereo not shown) [Compound 6, Flavuglaucin A] | – | 20.2 ± 2 µM | 80% | > 100 µM | about two | – |
| CC1CC=C2C(CO)=CCCC2C12CC(c1ccoc1)OC2=O (stereo not shown) [Compound 7, Flavuglaucin B] | – | 9.1 ± 0.2 µM | – | > 100 µM | – | loss in potency, R448A vs wild type [3]: 5.5 fold; IC50 [4]: 49.7 µM; Percentage of residual enzyme activity (RDDP) [2, 12]: 80%; IC50 [5]: 27.3 µM; IC50 [6]: 59.2 µM; loss in potency, R557A vs wild type [7]: 6.5 fold; IC50 [8]: 32.8 µM; loss in potency, A502F vs wild type [9]: 3.5 fold; IC50 [10]: > 100 µM; change of RNase H IC50 against V108F compared with the wild type enzyme [11]: slight increase in IC50 |
| CC1=C2CCC(C)C3(CC(c4ccoc4)OC3=O)C2CCC1=O (stereo not shown) [Compound 8, Flavuglaucin C] | – | 52.4 ± 0.4 µM | 80% | > 100 µM | about six | – |
| CC1CCC2=C(C=O)CCCC2C12CC(c1ccoc1)OC2=O (stereo not shown) [Compound 9] | – | 36.4 ± 0.4 µM | 80% | > 100 µM | four | – |

From article PMC7952052, “Flavonoids and Acid-Hydrolysis derivatives of Neo-Clerodane diterpenes from Teucrium flavum subsp. glaucum as inhibitors of the HIV-1 reverse transcriptase–associated RNase H function” (Journal of Enzyme Inhibition and Medicinal Chemistry, 2021)
